Test results taken from US20060177374A1, “Treatment of cancer with active vitamin D compounds in combination with radiotherapeutic agents and treatments” (Novacea, Inc., priority 2003, published 2006).

Experiments:
[1] = Solubility study of calcitriol in each formulation (light microscope); format: physicochemical; details: heated to 50° C., cooled to room temperature, highest concentration tested
Method: To further assess the formulations of calcitriol, a solubility study was conducted to evaluate the amount of calcitriol soluble in each formulation. Calcitriol concentrations from 0.1 to 0.6 μg calcitriol/mg formulation were prepared by heating the formulations to 50° C. followed by addition of the appropriate mass of calcitriol. The formulations were then allowed to cool to room temperature and the presence of undissolved calcitriol was determined by a light microscope with and without polarizing light. For each formulation, calcitriol was soluble at the highest concentration tested, 0.6 μg calcitriol/mg formulation.

[2] = in vivo; cited from earlier work

| SMILES | Calcitriol soluble in formulation [1] | Hypercalcemic effect compared to calcitriol [2] |
| --- | --- | --- |
| C=C1/C(=C\C=C2/CCC[C@]3(C)[C@@H]([C@H](C)CCCC(C)(C)O)CC[C@@H]23)C[C@@H](O)C[C@@H]1O [calcitriol, 1α,25-dihydroxyvitamin D3] | ≥ 0.6 μg calcitriol/mg formulation | – |
| C=C1/C(=C\C=C2/CCC[C@]3(C)C([C@H](C)CC#CC(C)(C)O)=CC[C@@H]23)C[C@@H](O)C[C@@H]1O [Ro23-7553] | – | reduced hypercalcemic effect |
